Measurements taken from patent US12497396B2, “Nitrogen-containing heterocyclic derivatives, method therefor and application therefor as inhibitors of KRAS G12C for the treatment of cancers” (SHANGHAI HANSOH BIOMEDICAL CO., LTD., priority 2019, dated 2025).

Tests used:
[1] = tested on: Mia PaCa-2 cells (KRAS G12C mutant cell line); experiment: Inhibition of Mia PaCa-2 cell proliferation (CellTiter-Glo, 72 h); format: cell-based, human; details: Homo sapiens
Procedure, shortened: (§1)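 Cells were seeded overnight at 37 °C, 5% CO2, then exposed to serially diluted compound (DMSO/medium) alongside a solvent control for 72 h. Viability was read by CellTiter-Glo luminescence, and IC50 was derived by nonlinear regression of inhibition rate against concentration.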

human KRAS G12C protein = target: T1, human KRAS G12C protein (Homo sapiens, UniProt P01116, G12C); experiment: Thermal shift: melting temperature of KRAS G12C protein; format: binding
T1 construct: purchased Beijing SinoBiological Co., Ltd. 12259-H07E2
Procedure, shortened: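 5.37 μM (final) human KRAS G12C in […] HEPES pH 7.5, 1 mM DTT, 150 mM NaCl, 5×SYPRO Orange, incubated 1 h at room temperature in the dark. Melt curve run from 25 to 95° C at 0.03° C/s. ΔTm = treated Tm minus DMSO control Tm.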

[2] = tested on: phosphorylated ERK in KRAS G12C mutant cells Mia PaCa-2; experiment: Inhibition of phosphorylated ERK level in Mia PaCa-2 cells (LANCE Ultra); format: cell-based; details: Homo sapiens, 2 hours, read-out: Mia PaCa-2 pERK IC50
Source text: As a preferred embodiment of the present disclosure, the method for detecting the inhibitory activity of phosphorylated ERK level is as follows: through cell culture, adding different concentrations of compound solutions to the cultured cells, continuing the culture for a period of time, lysing the cells, followed by centrifugation and […]; • further, the method of cell culture is: adjusting the cells to a suitable cell concentration with a complete medium, preferably the cell concentration is 1×10^6/mL, and spreading the cell suspension on a well plate for culture.
When Mia PaCa-2 cells were cultured to the appropriate fusion level, Mia PaCa-2 cells were collected, and the cell density was adjusted to 1×10^6/mL using complete culture medium, the cell suspension was spread on a 96-well plate, 50 μL per well, and placed adherent to the wall in a 37° C., 5% CO2 incubator overnight, compound solutions with different concentrations were prepared using DMSO and complete culture medium, a solvent control was set, the compound solution was added to a 96-well plate, 25 μL per well, and placed in a 37° C., 5% CO2 incubator for 2 hours of continuous culture, the supernatant was discarded from the cell culture plate, 50 μL of lysis solution was added to each well, and lysing was performed for 30 minutes by shaking at room temperature, then the mixture was centrifuged at 1000 rpm for 1 minute, 15 μL of supernatant was transferred to 384 well plate, 5 μL of detection mixture (Eu-labeled anti-ERK1/2 (T202-Y204) antibody with final concentration of 0.5 nM and ULight labeled anti-ERK1/2 antibody with final concentration of 5 nM) was added to each well, centrifuged at 1000 rpm for 1 minute and mixed uniformly, the reaction was carried out overnight at room temperature, the plate was read with BioTek Synergy H1, and the signal values was detected at 620 nm and 665 nm emission wavelengths by time-resolved fluorescence program.
The ratio of the signal values at 665 nm and 620 nm emission wavelength were calculated, and the ratio was used to calculate the inhibition rate, the concentration and the inhibition rate were fitted to a nonlinear regression curve using Graphpad Prism software, then the IC50 value was obtained.

[3] = tested on: NCI-H358 cells (KRAS G12C mutant cell line); experiment: Inhibition of NCI-H358 cell proliferation (CellTiter-Glo, 72 h); format: cell-based, human; details: Homo sapiens
Procedure, shortened: as §1

IC50 [1]: 30 nM
Tm (° C.) (human KRAS G12C protein; KRAS G12C protein 5.37 μM with compound 10 μM, 1 hour incubation): 64.4 °C
ΔTm at 10 µM (human KRAS G12C protein; compound 10 μM, Tm minus Tm of DMSO solvent control): 15.8 °C
IC50 [2]: 30 nM
IC50 [3]: 23 nM
SMILES: C=CC(=O)N1CCN(c2nc(=O)n(-c3c(SC)ccnc3C(C)C)c3nc(-c4c(N)cccc4F)c(F)cc23)[C@@H](C)C1 [Embodiment 134, 4-((S)-4-acryloyl-2-methylpiperazin-1-yl)-7-(2-amino-6-fluorophenyl)-6-fluoro-1-(2-isopropyl-4-(methylthio)pyridin-3-yl) pyrido [2,3-d] pyrimidin-2 (1H)-one]
